Assay results published in US4794110A, “5-Aryl-11-substituted-5H,11H-pyrrolo[2,1-c][1,4]benzoxazepined as analgesic and hypotensive agents” (Hoechst-Roussel Pharmaceuticals, Inc., priority 1987, dated 1988).
Values joined by “and” are separate entries in the source; they are usually repeats but may differ in a detail not shown here. Equal values may be shown once.

Assays:
[1] = tested on: 2-phenyl-1,4-benzoquinone-induced writhing; test: 2-phenyl-1,4-benzoquinone-induced writhing test in mice (analgesic activity, phenylquinone writhing); type: in vivo
Description: The compounds of formula I of the present invention are useful as analgesic agents due to their ability to alleviate pain in mammals. […] Exptl. Biol. Med., 95, 729 (1957)].

[2] = tested on: spontaneous hypertensive rat; test: Antihypertensive activity in the spontaneous hypertensive rat by the indirect tail cuff method; type: in vivo; settings: mean arterial blood pressure, third day
Protocol: In this procedure a group of five animals are treated orally for three days with the test compound in relation to a control group of the same number. The drop in blood pressure is measured on the third day following administration.

CCC(=O)O[C@](Cc1ccccc1)(c1ccccc1)[C@H](C)CN(C)C [propoxyphene, reference compound]
Analgesic PQW, % Inhibition of Writhing ([1]; 3.9 mg/kg s.c., reference compound): 50%

CN(C)CC1Oc2ccccc2C(c2ccccc2)n2cccc21.Cl (single isomer, unassigned) [11-dimethylaminomethyl-5-phenyl-5H,11H--pyrrolo[2,1-c][1,4]b] [11-Dimethylaminomethyl-5-phenyl-5H,11H-pyrrolo[2,1-c][1,4]benzoxazepine hydrochloride]
Analgesic PQW, % Inhibition of Writhing ([1]; 20 mg/kg, s.c., hydrochloride): 24% and 35%

O=C(O)C(=O)O.c1ccc(CN2CCC(C3Oc4ccccc4C(c4ccccc4)n4cccc43)CC2)cc1 (centres unmarked) [11-(1-Benzyl-4-piperidinyl)-5-phenyl-5H,11H-pyrrolo[2,1-c][1,4]benzoxazepine oxalate]
Analgesic PQW, % Inhibition of Writhing ([1]; 20 mg/kg, s.c.): 34%
Decrease in Blood Pressure ([2]; 3 mg/kg, p.o.): 44 mmHg

C[C@H](CS)C(=O)N1CCC[C@H]1C(=O)O [captopril, reference compound]
Decrease in Blood Pressure ([2]; 10 mg/kg p.o., reference compound): 33 mmHg
